A short description of assay [1]: Suppression of Phenylbenzoquinone Irritant-Induced Writhing (PBQ). It is filed as in vivo, Carworth Farms CF-1 mice. The settings on record: subcutaneously, mouse; for ED50: sc, PBQ-induced writhing, read-out: Analgesic Activity ED50, PBQ; for Analgesic Activity % Protection, PBQ: at 56 mg./kg. On the procedure:
Suppression of Phenylbenzoquinone Irritant-Induced Writhing
Groups of 5 Carworth Farms CF-1 mice are pretreated subcutaneously or orally with saline, morphine, codeine or the test compound. Twenty minutes (if treated subcutaneously) or fifty minutes (if treated orally) later, each group is treated with intraperitoneal injection of phenylbenzoquinone, an irritant known to produce abdominal contractions. The mice are observed for 5 minutes for the presence or absence of writhing starting 5 minutes after the injection of the irritant. MPE50 's of the drug pretreatments in blocking writhing are ascertained.
(§1) Results of the above tests are recorded as percent maximum possible effect (%MPE). The %MPE of each group is statistically compared to the %MPE of the standard and the predrug control values. The %MPE is calculated as follows: [formula]
(§2) The following abbreviations are used in the Tables: PBQ=phenylbenzoquinone-induced writhing; TF=tail flick; HP=hot plate; RTC=rat tail clamp; and FJ=flinch jump.
(§3) Single values in the tables are ED50 's. A number followed by a second number in parentheses reports the % protection observed at a given dose. Thus, 31(56) indicates 31% protection at a dose of 56 mg./kg. of body weight.
For orientation: An intraperitoneal irritant provokes the stretching counted in writhing tests.

Assay [2] is described as follows: Mouse Tail Flick Analgesic Testing (TF). It counts as in vivo, mice. The following applies: for ED50: sc; for ED50 / Analgesic Activity % Protection, TF: subcutaneously, mouse tail flick; for Analgesic Activity % Protection, TF: at 10 mg./kg.
Excerpt: (b) Mouse Tail Flick Analgesic Testing
Tail flick testing in mice is modified after D'Amour and Smith, J. Pharmacol. Exp. Ther., 72, 74-79 (1941) using controlled high intensity heat applied to the tail. Each mouse is placed in a snug-fitting metal cylinder, with the tail protruding through one end. This cylinder is arranged so that the tail lies flat over a concealed heat lamp. At the onset of testing an aluminum flag over the lamp is drawn back, allowing the light beam to pass through the slit and focus onto the end of the tail. A timer is simultaneously activated. The latency of a sudden flick of the tail is ascertained. Untreated mice usually react within 3-4 seconds after exposure to the lamp. The end point for protection is 10 seconds. Each mouse is tested at 0.5 and 2 hours after treatment with morphine and the test compound. Morphine has an MPE50 of 3.2-5.6 mg./kg. (s.c.).
as §1, §2, §3

Assay [3] can be described thus: Mouse Hot Plate Analgesic Testing (HP). It counts as in vivo, mice. Further details: key to Analgesic Activity, HP (IA@10): IA: inactive. On the procedure: (a) Mouse Hot Plate Analgesic Testing
The method used is modified after Woolfe and MacDonald, J. Pharmacol. Exp. Ther., 80, 300-307 (1944). A controlled heat stimulus is applied to the feet of mice on a 1/8-inch thick aluminum plate. A 250 watt reflector infrared heat lamp is placed under the bottom of the aluminum plate. A thermal regulator, connected to thermistors on the plate surface, programs the heat lamp to maintain a constant temperature of 57° C. Each mouse is dropped into a glass cylinder (61/2-inch diameter) resting on the hot plate, and timing is begun when the animal's feet touch the plate. The mouse is observed at 0.5 and 2 hours after treatment with the test compound for the first "flicking" movements of one or both hind feet, or until 10 seconds elapse without such movements. Morphine has an MPE50 =4-5.6 mg./kg. (s.c.).
as §1, §2, §3

The next assay in a line: "Flinch-Jump" Test (FJ). It is filed as in vivo, male albino rats, Charles River (Sprague-Dawley) CD strain. The settings on record: sc; subcutaneously; rat flinch jump; read-out: Analgesic Activity ED50, FJ.
Excerpt: A modification of the flinch-jump procedure of Tenen, Psychopharmacologia, 12, 278-285 (1968) is used for determining pain thresholds. Male albino rats (175-200 g.) of the Charles River (Sprague-Dawley) CD strain are used. Prior to receiving the drug, the feet of each rat are dipped into a 20% glycerol/saline solution. The animals are then placed in a chamber and presented with a series of 1-second shocks to the feet which are delivered in increasing intensity at 30-second intervals. These intensities are 0.26, 0.39, 0.52, 0.78, 1.05, 1.31, 1.58, 1.86, 2.13, 2.42, 2.72 and 3.04 mA. Each animal's behavior is rated for the presence of (a) flinch, (b) squeak and (c) jump or rapid forward movement at shock onset. Single upward series of shock intensities are presented to each rat just prior to, and at 0.5, 2, 4 and 24 hours subsequent to drug treatment.
as §1, §2, §3

The nature of assay [4]: Haffner Tail Pinch Procedure (rat tail clamp, RTC). It is filed as in vivo, male albino rats, Charles River (Sprague-Dawley) CD strain. The settings on record: for ED50: sc, subcutaneously, rat tail clamp, read-out: Analgesic Activity ED50, RTC. On the procedure: Effect on the Haffner Tail Pinch Procedure
A modification of the procedure of Haffner, Experimentelle Prufung Schmerzstillender. Deutch Med. Wschr., 55, 731-732 (1929) is used to ascertain the effects of the test compound on aggressive attacking responses elicited by a stimulus pinching the tail. Male albino rats (50-60 g.) of the Charles River (Sprague-Dawley) CD strain are used. Prior to drug treatment, and again at 0.5, 1, 2 and 3 hours after treatment, a Johns Hopkins 2.5-inch "bulldog" clamp is clamped onto the root of the rat's tail. The endpoint at each trial is clear attacking and biting behavior directed toward the offending stimulus, with the latency for attack recorded in seconds. The clamp is removed in 30 seconds if attacking has not yet occurred, and the latency of response is recorded as 30 seconds. Morphine is active at 17.8 mg./kg. (i.p.).
as §1, §2, §3

The mark [5] stands for this setting: subcutaneously, at 10 mg./kg., mouse hot plate.

Broadly, the ED50 is the midpoint of the dose-response relation.

Molecules are shown by their SMILES.

As to `CCCCCCC(C)(C)c1ccc(C2CCCC(=O)C2)c(O)c1` (stereo not drawn) [3-[4-(1,1-Dimethylheptyl)-2-hydroxyphenyl]cyclohexanone], the ED50 came to 4.5 mg/kg in assay [1] and 15.3 mg/kg in assay [2].
For `CC(CCCc1ccccc1)Oc1ccc([C@H]2CCC[C@H](O)C2)c(O)c1` (stereo partly drawn), the “Analgesic Activity % Protection, PBQ” value in assay [1] was 28%.
`CCCCCCC(C)(C)c1ccc([C@]2(C)CCC[C@H](O)C2)c(O)c1` (relative stereo) [Z-3-[4-(1,1-dimethylheptyl)-2-hydroxyphenyl]-3-methylcyclohexanol]: the ED50 in assay [1] was at least 56 mg/kg.
Consider `CCCCCCC(C)(C)c1ccc([C@@H]2CC[C@H](O)C2)c(O)c1` (relative stereo) [cis-3-[4-(1,1-Dimethylheptyl)-2-hydroxyphenyl]cyclopentanol], for which the “Analgesic Activity % Protection, PBQ” value in assay [1] was 57%.
On to `Oc1cc(OCCCCc2ccccc2)ccc1[C@H]1CCC[C@H](O)C1` (relative stereo), for which the 50% effective dose (ED50) in assay [1] is at least 56 mg/kg.
For the molecule `CC(CCCc1ccccc1)Oc1ccc([C@@H]2CCC[C@H](O)C2)c(O)c1` (stereo partly drawn) [cis-3-[2-hydroxy-4-(2-(5-phenylpentyloxy))phenyl]cyclohexanol], the ED50 in assay [1] stood at 38 mg/kg.
For the molecule `CCCCCCC(C)(C)c1ccc([C@H]2CC[C@H](O)C2)c(O)c1` (relative stereo), the “Analgesic Activity % Protection, PBQ” value in assay [1] came to 36%.
Consider `COC12CCCC(C1)c1ccc(O)cc1O2` (stereo not drawn) [x=1; A+B=oxo^(c); R2=H; R3=H; Z=O; W=H, 3-(2,4-Dihydroxyphenyl)cyclohexanone Methyl Ketal], for which the “Analgesic Activity % Protection, PBQ” value in assay [1] came to 43%.
Turning to `CCCCCCC(C)(C)c1ccc([C@@H]2CC(=O)CC[C@@H]2C)c(O)c1` (relative stereo) [cis-3-[4-(1,1-Dimethylheptyl)-2-hydroxyphenyl]-4-methylcyclohexanone], the ED50 in assay [1] came out at 1.51 mg/kg.
With `CCCCCCC(C)(C)c1ccc([C@H]2CCCC[C@H](O)C2)c(O)c1` (relative stereo) [trans-3-[4-(1,1-dimethylheptyl)-2-hydroxyphenyl]cycloheptanol], the ED50 turned out to be 1.53 mg/kg in assay [1], 5.4 mg/kg in “"Flinch-Jump" Test (FJ)” and 5.6 mg/kg in assay [4]. In addition, the “Analgesic Activity, HP (IA@10)” value in assay [3] (setting [5]) was “IA”. In assay [2], the “Analgesic Activity % Protection, TF” value is listed as 65%.
With `Oc1cc(OCCCCc2ccccc2)ccc1[C@@H]1CCC[C@H](O)C1` (relative stereo) [cis-3-[2-Hydroxy-4-(4-phenylbutyloxy)phenyl]cyclohexanol], in assay [1], the 50% effective dose (ED50) was at most 56 mg/kg.
In the case of `CCCCCCC(C)(C)c1ccc(C2=CC(=O)CCC2)c(O)c1` [3-[4-(1,1-Dimethylheptyl)-2-hydroxyphenyl]cyclohex-2-enone], the “Analgesic Activity % Protection, PBQ” value in assay [1] was found to be 20%.
In the case of `CCCCCCC(C)(C)c1ccc([C@@H]2C[C@@H](O)CC[C@H]2C)c(O)c1` (relative stereo) [trans,trans-3-[4-(1,1-dimethylheptyl)-2-hydroxyphenyl]-4-methylcyclohexanol], in assay [1], the ED50 was determined as 0.5 mg/kg.
`CCCCCCC(C)(C)c1ccc([C@H]2CCC[C@H](O)C2)c(O)c1` (relative stereo) [trans-3-[4-(1,1-Dimethylheptyl)-2-hydroxyphenyl]cyclohexanol]: the ED50 in assay [1] stood at 3.8 mg/kg.
For the molecule `CCCCCCC(C)(C)c1ccc(C2CCC(=O)C2)c(O)c1` (stereo not drawn) [3-[4-(1,1-Dimethylheptyl)-2-hydroxyphenyl]cyclopentanone], the “Analgesic Activity % Protection, PBQ” value in assay [1] amounted to 15%.
Same read-out and setting: then `CCCCCCC(C)(C)c1ccc(C2CCCC(=O)C2)c(OCc2ccccc2)c1` (stereo not drawn) [3-[2-Benzyloxy-4-(1,1-dimethylheptyl)phenyl]cyclohexanone], with 20%.
Regarding `CCCCCCC(C)(C)c1ccc([C@@H]2CCCC[C@H](O)C2)c(O)c1` (relative stereo) [cis-3-[4-(1,1-dimethylheptyl)-2-hydroxyphenyl]cycloheptanol], the ED50 is 1.5 mg/kg in assay [1], 3.5 mg/kg in “"Flinch-Jump" Test (FJ)” and 7.7 mg/kg in assay [4]. Also, the “Analgesic Activity % Protection, HP” value in assay [3] (setting [5]) is reported as 27%. Also, the “Analgesic Activity % Protection, TF” value in assay [2] is on record as 32%.
Take `CCCCCCC(C)(C)c1ccc(C2(C)CCCC(=O)C2)c(O)c1` (stereo not drawn) [3-[4-(1,1-Dimethylheptyl)-2-hydroxyphenyl]-3-methylcyclohexanone]: in assay [1], the “Analgesic Activity % Protection, PBQ” value turned out to be 31%.
In the case of `O=C1CCCC(c2ccc(O)cc2O)C1` (stereo not drawn) [x=1; A+B=oxo; R2=H; R3=H; Z=O; W=H, 3-(2,4-Dihydroxyphenyl)cyclohexanone], the “Analgesic Activity % Protection, PBQ” value in assay [1] is 32%.
With `CCCCCCC(C)(C)c1ccc([C@@H]2CCC[C@H](O)C2)c(O)c1` (relative stereo) [cis-3-[4-(1,1-dimethylheptyl) 2-hydroxyphenyl]cyclohexanol], the ED50 was found to be 1.1 mg/kg in assay [1], 4 mg/kg in “"Flinch-Jump" Test (FJ)”, 4.7 mg/kg in assay [4] and 6.8 mg/kg in assay [2].
As for `CCCCCCC(C)(C)c1ccc([C@H]2C[C@@H](O)CC[C@@H]2C)c(O)c1` (relative stereo) [cis,trans-3-[4-(1,1-dimethylheptyl)-2-hydroxyphenyl]-4-methylcyclohexanol], in assay [1], the ED50 is at most 1 mg/kg.
With `CN1CC[C@]23c4c5ccc(O)c4O[C@H]2[C@@H](O)C=C[C@H]3[C@H]1C5` [Morphine, reference compound], in assay [3] (s.c., mouse), the “MPE50, hot plate” value was in the range of 4 to 5.6 mg/kg. In assay [4] (17.8 mg./kg. (i.p.), rat), the “activity in Haffner tail pinch” value was “active”. In addition, the “MPE50, tail flick” value in assay [2] (s.c., mouse) is 3.2 to 5.6 mg/kg.
For `CCCCCCC(C)(C)c1ccc(C2CCCCC(=O)C2)c(O)c1` (stereo not drawn) [3-[4-(1,1-Dimethylheptyl)-2-hydroxyphenyl]cycloheptanone], the ED50 in assay [1] amounted to 2.15 mg/kg; in the assay “"Flinch-Jump" Test (FJ)”, 10.8 mg/kg; in assay [4], 4.4 mg/kg. In assay [3] (setting [5]), the “Analgesic Activity % Protection, HP” value was determined as 33%. The “Analgesic Activity % Protection, TF” value in assay [2] is given as 58%.
As to `CC(CCCc1ccccc1)Oc1ccc(C2CCCC(=O)C2)c(O)c1` (stereo not drawn) [3-[2-hydroxy-4-(2-(5-phenylpentyloxy))phenyl]cyclohexanone], the ED50 in assay [1] was at least 56 mg/kg.

For the origin of these results see patent US4391827A, “3-(2-Hydroxy-4-(substituted)phenyl)-cycloalkanone and cycloalkanol analgesic agents and intermediates therefor” (priority 1981, dated 1983).
